Key:
[1] = tested on: lambsquarter (Chenopodium album); test: Postemergence herbicidal activity; type: in vivo; settings: Chenopodium album, post-emergence, 336 h, post-emergent, 140 g ai/ha, after 14 days; read-out: % Control CHEAL
Summary of the method: (§1)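 Compounds were applied postemergence by track sprayer delivering 187 L/ha, using a mixed organic/aqueous carrier containing crop oil concentrate and surfactant; solvent-blank sprays served as controls. Test plants were at the first to second true leaf stage after 7-21 days' greenhouse growth, were sub-irrigated after treatment, and were evaluated by probit analysis.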

[2] = tested on: redroot pigweed (Amaranthus retroflexus); test: Postemergence herbicidal activity; type: in vivo; settings: Amaranthus retroflexus, post-emergence, 336 h, post-emergent, 140 g ai/ha, after 14 days; read-out: % Control AMARE
Summary of the method: as §1

[3] = tested on: velvetleaf (Abutilon theophrasti); test: Postemergence herbicidal activity; type: in vivo; settings: Abutilon theophrasti, post-emergence, 336 h, post-emergent, 140 g ai/ha, after 14 days; read-out: % Control ABUTH
Summary of the method: as §1

[4] = tested on: lambsquarter (Chenopodium album); test: Preemergence herbicidal activity; type: in vivo; settings: Chenopodium album, pre-emergence, 480 h, pre-emergent, after 20-22 days, read-out: % Control CHEAL; for pest or weed control at 140 g/ha: 140 g ai/ha
Excerpt: (§2) Seeds of the desired test plant species were planted in a soil matrix prepared by mixing a loam soil (43 percent silt, 19 percent clay, and 38 percent sand, with a pH of about 8.1 and an organic matter content of about 1.5 percent) and sand in a 70 to 30 ratio. The soil matrix was contained in plastic pots with a surface area of 113 square centimeters. When required to ensure good germination and healthy plants, a fungicide treatment and/or other chemical or physical treatment was applied. […] Compound requirements are based upon a 12 mL application volume at a rate of 187 L/ha. Formulated compounds were applied to the plant material with an overhead Mandel track sprayer equipped with a […] nozzles calibrated to deliver 187 L/ha over an application area of 0.503 square meters at a spray height of 18 inches (43 cm) above the soil surface. Control plants were sprayed in the same manner with the solvent blank. The treated pots and control pots were placed in a greenhouse maintained with an approximate 15 hour photoperiod and temperatures of about 23-29° C. during the day and 22-28° C. during the night. Nutrients and water were added on a regular basis and supplemental lighting was provided with overhead metal halide 1000-watt lamps as necessary. The water was added by top-irrigation.

[5] = tested on: redroot pigweed (Amaranthus retroflexus); test: Preemergence herbicidal activity; type: in vivo; settings: Amaranthus retroflexus, pre-emergence, 480 h, pre-emergent, after 20-22 days, read-out: % Control AMARE; for pest or weed control at 140 g/ha: 140 g ai/ha
Excerpt: as §2

[6] = tested on: velvetleaf (Abutilon theophrasti); test: Preemergence herbicidal activity; type: in vivo; settings: Abutilon theophrasti, pre-emergence, 480 h, pre-emergent, after 20-22 days, read-out: % Control ABUTH; for pest or weed control at 140 g/ha: 140 g ai/ha
Excerpt: as §2

melting point | SMILES | pest or weed control at 140 g/ha [1] [%] | pest or weed control at 140 g/ha [2] [%] | pest or weed control at 140 g/ha [3] [%] | pest or weed control at 140 g/ha [4] [%] | pest or weed control at 140 g/ha [5] [%] | pest or weed control at 140 g/ha [6] [%] | pest or weed control at 280 g/ha ([4]; 280 g ai/ha) [%] | pest or weed control at 280 g/ha ([5]; 280 g ai/ha) [%] | pest or weed control at 280 g/ha ([6]; 280 g ai/ha) [%]
120 to 122 °C | CCc1c(Cl)ccc(-c2cc(N)c(Cl)c(C(=O)OC)n2)c1F [Compound 64, 4-Amino-3-chloro-6-(4-chloro-3-ethyl-2-fluorophenyl)pyridine-2-carboxylic acid, methyl ester] | 100 | 100 | 95 | 100 | 100 | 80 |  |  | 
116 to 117 °C | COCc1c(Cl)ccc(-c2cc(N)c(Cl)c(C(=O)OC)n2)c1F [Compound 3, 4-Amino-3-chloro-6-(4-chloro-2-fluoro-3-methoxymethylphenyl)pyridine-2-carboxylic acid methyl ester] | 80 | 100 | 100 | 95 | 100 | 98 |  |  | 
179 to 181 °C (dec.) | Cc1c(Cl)ccc(-c2cc(N)c(Cl)c(C(=O)O)n2)c1F [Compound 99, 4-Amino-3-chloro-6-(4-chloro-2-fluoro-3-methylphenyl)pyridine-2-carboxylic acid] | 90 | 90 | 80 | 95 | 100 | 100 |  |  | 
179 to 180 °C | Nc1c(F)c(-c2ccc3c(c2F)OCO3)nc(C(=O)O)c1Cl [Compound 115, 4-Amino-3-chloro-5-fluoro-6-(2-fluoro-3,4-methylenedioxyphenyl)pyridine-2-carboxylic acid] | 100 | 100 | 100 | 100 | 100 | 100 |  |  | 
151 to 152 °C | COC(=O)c1nc(-c2ccc3c(c2F)OCO3)c(F)c(N)c1Cl [Compound 12, 4-Amino-3-chloro-5-fluoro-6-(2-fluoro-3,4-methylenedioxyphenyl)pyridine-2-carboxylic acid methyl ester] | 100 | 100 | 100 | 100 | 100 | 100 |  |  | 
202 to 203 °C (dec.) | Nc1cc(-c2ccc3c(c2F)OCO3)nc(C(=O)O)c1Cl [Compound 108, 4-Amino-3-chloro-6-(2-fluoro-3,4-methylenedioxyphenyl)pyridine-2-carboxylic acid] | 95 | 100 | 100 | 90 | 100 | 90 |  |  | 
113 to 115 °C | COC(=O)c1nc(-c2ccc(Cl)c(OCC(F)F)c2Cl)cc(N)c1Cl [Compound 10, 4-Amino-3-chloro-6-[2,4-dichloro-3-(2,2-difluoroethoxy)phenyl]pyridine-2-carboxylic acid methyl ester] | 100 | 100 | 90 |  |  |  | 80 | 50 | 40
168 to 169 °C | COC(=O)c1nc(-c2cc(OC)c(Cl)cc2F)c(F)c(N)c1Cl [Compound 15, 4-Amino-3-chloro-5-fluoro-6-(4-chloro-2-fluoro-5-methoxyphenyl)pyridine-2-carboxylic acid methyl ester] | 100 | 100 | 100 | 100 | 100 | 60 |  |  | 
180 to 181 °C | COc1cc(-c2nc(C(=O)O)c(Cl)c(N)c2F)c(F)cc1Cl [Compound 122, 4-Amino-3-chloro-6-(4-chloro-2-fluoro-5-methoxyphenyl)-5-fluoropyridine-2-carboxylic acid] |  |  |  | 100 | 100 | 100 |  |  | 

Second part, the compound before the results:

SMILES | melting point | pest or weed control at 140 g/ha [1] [%] | pest or weed control at 140 g/ha [2] [%] | pest or weed control at 140 g/ha [3] [%] | pest or weed control at 140 g/ha [4] [%] | pest or weed control at 140 g/ha [5] [%] | pest or weed control at 140 g/ha [6] [%] | pest or weed control at 280 g/ha ([4]; 280 g ai/ha) [%] | pest or weed control at 280 g/ha ([5]; 280 g ai/ha) [%] | pest or weed control at 280 g/ha ([6]; 280 g ai/ha) [%]
COc1c(Cl)ccc(-c2cc(N)c(Cl)c(C(=O)O)n2)c1Cl [Compound 110, 4-Amino-3-chloro-6-(2,4-dichloro-3-methoxyphenyl)pyridine-2-carboxylic acid] | 187 to 188 °C (dec.) | 85 | 90 | 80 | 40 | 40 | 100 |  |  | 
COCCOc1c(Cl)ccc(-c2cc(N)c(Cl)c(C(=O)O)n2)c1F [Compound 113, 4-Amino-3-chloro-6-(4-chloro-2-fluoro-3-methoxyethoxyphenyl)pyridine-2-carboxylic acid] | 169 to 170 °C (dec.) |  |  |  | 55 | 0 | 0 |  |  | 
CCOc1c(Cl)ccc(-c2cc(N)c(Cl)c(C(=O)O)n2)c1F [Compound 102, 4-Amino-3-chloro-6-(4-chloro-2-fluoro-3-ethoxyphenyl)pyridine-2-carboxylic acid] | 177 to 178 °C (dec.) | 95 | 85 | 80 | 0 | 95 | 85 |  |  | 
CN(C)c1c(Cl)cc(F)c(-c2cc(N)c(Cl)c(C(=O)O)n2)c1F [Compound 94, 4-Amino-3-chloro-6-(4-chloro-2,6-difluoro-3-dimethylaminophenyl)pyridine-2-carboxylic acid] | 171 to 172 °C | 100 | 100 | 100 | 100 | 100 | 100 |  |  | 
CCN(CC)c1c(Cl)ccc(-c2cc(N)c(Cl)c(C(=O)O)n2)c1F [Compound 116, 4-Amino-3-chloro-6-[4-chloro-3-(diethylamino)-2-fluorophenyl]pyridine-2-carboxylic acid] | 174 to 175 °C | 100 | 90 | 80 | 75 | 100 | 100 |  |  | 
Nc1cc(-c2ccc(Cl)c(OCC(F)F)c2F)nc(C(=O)O)c1Cl [Compound 96, 4-Amino-3-chloro-6-(4-chloro-2-fluoro-3-(2,2-difluoroethoxy)phenyl)pyridine-2-carboxylic acid] |  | 90 | 100 | 50 | 40 | 70 | 20 |  |  | 
COc1c(Cl)ccc(-c2nc(C(=O)O)c(Cl)c(N)c2F)c1F [Compound 123, 4-Amino-3-chloro-6-(4-chloro-2-fluoro-3-methoxyphenyl)-5-fluoropyridine-2-carboxylic acid] |  | 100 | 100 | 100 | 100 | 100 | 100 |  |  | 

Reference: patent US20070179060A1, “6-(Poly-substituted aryl)-4-aminopicolinates and their use as herbicides” (priority 2006, published 2007)
